For the series, the system named is CCRIS mutagenicity, Ames/micronucleus/aberration tests. Put plainly: CCRIS mutagenicity studies. The following applies: Test System: AMES SALMONELLA TYPHIMURIUM

The source made the active and inactive calls. The rule behind the calls is not given here.

In the case of `O=C1C=Cc2ccccc2C1=O`, the mutagenic call (Strain/Indicator: TA97, Metabolic Activation: NONE, Method: PREINCUBATION) was “active; positive”; the mutagenic call (Strain/Indicator: TA97, Metabolic Activation: RAT, LIVER, S-9, PHENOBARBITAL AND 5,6-BENZOFLAVONE, Method: PREINCUBATION) was “inactive; negative”; the mutagenic call (Strain/Indicator: TA97A, Metabolic Activation: NONE, Method: PREINCUBATION) was “active; positive”; the mutagenic call (Strain/Indicator: TA98, Metabolic Activation: RAT, LIVER, S-9, PHENOBARBITAL AND 5,6-BENZOFLAVONE, Method: PREINCUBATION) was “inactive; negative”; the mutagenic call (Strain/Indicator: TA100, Metabolic Activation: NONE, Method: PREINCUBATION) was “active; positive”; the mutagenic call (Strain/Indicator: TA100, Metabolic Activation: RAT, LIVER, S-9, PHENOBARBITAL AND 5,6-BENZOFLAVONE, Method: PREINCUBATION) was “active; positive”. Moreover, the mutagenic call by setting is: (Strain/Indicator: TA102, Metabolic Activation: RAT, LIVER, S-9, PHENOBARBITAL AND 5,6-BENZOFLAVONE, Method: PREINCUBATION) “inactive; negative”; (Strain/Indicator: TA104, Metabolic Activation: NONE, Method: PREINCUBATION) “active; positive”; (Strain/Indicator: TA104, Metabolic Activation: RAT, LIVER, S-9, PHENOBARBITAL AND 5,6-BENZOFLAVONE, Method: PREINCUBATION) “active; positive”; (Strain/Indicator: TA1535, Metabolic Activation: NONE, Method: PREINCUBATION) “inactive; negative”; (Strain/Indicator: TA1535, Metabolic Activation: RAT, LIVER, S-9, PHENOBARBITAL AND 5,6-BENZOFLAVONE, Method: PREINCUBATION) “inactive; negative”; (Strain/Indicator: TA1537, Metabolic Activation: NONE, Method: PREINCUBATION) “inactive; negative”. For the same molecule, the mutagenic call was “inactive; negative” (Strain/Indicator: TA1537, Metabolic Activation: RAT, LIVER, S-9, PHENOBARBITAL AND 5,6-BENZOFLAVONE, Method: PREINCUBATION); “inactive; negative” (Strain/Indicator: TA1538, Metabolic Activation: NONE, Method: PREINCUBATION); “inactive; negative” (Strain/Indicator: TA1538, Metabolic Activation: RAT, LIVER, S-9, PHENOBARBITAL AND 5,6-BENZOFLAVONE, Method: PREINCUBATION); “active; positive” (Strain/Indicator: TA2637, Metabolic Activation: NONE, Method: PREINCUBATION); “inactive; negative” (Strain/Indicator: TA2637, Metabolic Activation: RAT, LIVER, S-9, PHENOBARBITAL AND 5,6-BENZOFLAVONE, Method: PREINCUBATION).
Turning to `C#Cc1ccc2c3c(cccc13)-c1ccccc1-2`, the mutagenic call runs as follows: (Strain/Indicator: TA98, Metabolic Activation: NONE, Method: STANDARD PLATE) “active; positive”; (Strain/Indicator: TA98, Metabolic Activation: RAT, LIVER, S-9, AROCLOR 1254 (2%), Method: STANDARD PLATE) “active; positive”.
`Cc1ccc2cc3c(ccc4ccccc43)cc2c1`: the mutagenic call by setting is: (Strain/Indicator: TA100, Metabolic Activation: RAT, INTACT HEPATOCYTES, AROCLOR 1254, Method: PREINCUBATION) “active; positive”; (Strain/Indicator: TA100, Metabolic Activation: RAT, NADPH-FORTIFIED HOMOGENIZED HEPATOCYTES, AROCLOR 1254, Method: PREINCUBATION) “active; positive”; (Strain/Indicator: TA100, Metabolic Activation: RAT, SONICATED HEPATOCYTES, AROCLOR 1254, Method: PREINCUBATION) “active; positive”.

The values are drawn from PubChem BioAssay AID1259407 (Chemical Carcinogenesis Research Information System (CCRIS), 2018).
